Assay results from ChEMBL document CHEMBL4765362, “Thirty Years of HDAC Inhibitors: 2020 Insight and Hindsight” (J Med Chem, 2020).

Legend:
Histone deacetylase 11 [1] = target: T1, Histone deacetylase 11 (Homo sapiens, UniProt Q96DB2); test: Inhibition of human full length C-terminal Flag tagged HDAC11 expressed in HEK293T cells assessed as reduction in demyristoylation activity using H3K9-myristoyl peptide as substrate by HPLC method
T1 sequence (Q96DB2 whole entry): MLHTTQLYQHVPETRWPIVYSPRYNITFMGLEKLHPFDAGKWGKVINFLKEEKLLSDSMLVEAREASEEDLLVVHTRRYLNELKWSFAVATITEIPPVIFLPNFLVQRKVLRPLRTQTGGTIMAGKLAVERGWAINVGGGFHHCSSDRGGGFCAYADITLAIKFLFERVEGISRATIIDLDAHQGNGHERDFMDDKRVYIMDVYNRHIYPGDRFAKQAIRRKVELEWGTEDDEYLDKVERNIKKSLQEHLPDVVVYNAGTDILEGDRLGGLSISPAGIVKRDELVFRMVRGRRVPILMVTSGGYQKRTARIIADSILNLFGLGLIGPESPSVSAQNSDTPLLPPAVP

Histone deacetylase 3 = Histone deacetylase 3 (Homo sapiens, UniProt O15379); test: Inhibition of HDAC3 (unknown origin)
Sequence of Histone deacetylase 3 (O15379 whole entry): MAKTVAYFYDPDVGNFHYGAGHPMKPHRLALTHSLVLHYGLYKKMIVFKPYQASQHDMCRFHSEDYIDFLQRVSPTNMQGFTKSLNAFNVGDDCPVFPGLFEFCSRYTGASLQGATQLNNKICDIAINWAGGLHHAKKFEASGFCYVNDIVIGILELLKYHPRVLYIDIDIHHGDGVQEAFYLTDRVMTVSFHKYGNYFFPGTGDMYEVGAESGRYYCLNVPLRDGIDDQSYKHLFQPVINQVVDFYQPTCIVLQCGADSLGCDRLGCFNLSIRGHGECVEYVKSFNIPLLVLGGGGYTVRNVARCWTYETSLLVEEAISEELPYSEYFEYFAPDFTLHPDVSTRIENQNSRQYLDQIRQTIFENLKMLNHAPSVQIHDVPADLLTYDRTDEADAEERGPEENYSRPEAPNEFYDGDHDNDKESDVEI

Histone deacetylase 1 = Histone deacetylase 1 (Homo sapiens, UniProt Q13547); test: Inhibition of human full length C-terminal Flag tagged HDAC1 expressed in HEK293T cells using H3K9-myristoyl peptide as substrate by HPLC method
Sequence of Histone deacetylase 1 (Q13547 whole entry): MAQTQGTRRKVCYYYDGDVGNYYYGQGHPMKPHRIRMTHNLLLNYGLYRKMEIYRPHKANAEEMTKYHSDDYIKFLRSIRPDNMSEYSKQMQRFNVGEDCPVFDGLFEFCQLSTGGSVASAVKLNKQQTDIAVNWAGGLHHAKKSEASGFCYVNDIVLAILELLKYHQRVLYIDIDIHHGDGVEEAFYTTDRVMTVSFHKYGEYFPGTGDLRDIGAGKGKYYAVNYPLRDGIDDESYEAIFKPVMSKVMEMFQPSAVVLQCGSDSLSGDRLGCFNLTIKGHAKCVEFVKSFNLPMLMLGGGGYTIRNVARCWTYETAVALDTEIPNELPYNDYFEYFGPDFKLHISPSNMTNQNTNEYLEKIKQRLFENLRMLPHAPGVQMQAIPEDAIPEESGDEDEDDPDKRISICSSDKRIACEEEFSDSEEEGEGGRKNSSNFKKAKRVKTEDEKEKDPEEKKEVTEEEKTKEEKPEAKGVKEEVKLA

Histone deacetylase 4 = Histone deacetylase 4 (Homo sapiens, UniProt P56524); test: Inhibition of human full length C-terminal Flag tagged HDAC4 expressed in HEK293T cells using H3K9-myristoyl peptide as substrate by HPLC method
Sequence of Histone deacetylase 4 (P56524 whole entry): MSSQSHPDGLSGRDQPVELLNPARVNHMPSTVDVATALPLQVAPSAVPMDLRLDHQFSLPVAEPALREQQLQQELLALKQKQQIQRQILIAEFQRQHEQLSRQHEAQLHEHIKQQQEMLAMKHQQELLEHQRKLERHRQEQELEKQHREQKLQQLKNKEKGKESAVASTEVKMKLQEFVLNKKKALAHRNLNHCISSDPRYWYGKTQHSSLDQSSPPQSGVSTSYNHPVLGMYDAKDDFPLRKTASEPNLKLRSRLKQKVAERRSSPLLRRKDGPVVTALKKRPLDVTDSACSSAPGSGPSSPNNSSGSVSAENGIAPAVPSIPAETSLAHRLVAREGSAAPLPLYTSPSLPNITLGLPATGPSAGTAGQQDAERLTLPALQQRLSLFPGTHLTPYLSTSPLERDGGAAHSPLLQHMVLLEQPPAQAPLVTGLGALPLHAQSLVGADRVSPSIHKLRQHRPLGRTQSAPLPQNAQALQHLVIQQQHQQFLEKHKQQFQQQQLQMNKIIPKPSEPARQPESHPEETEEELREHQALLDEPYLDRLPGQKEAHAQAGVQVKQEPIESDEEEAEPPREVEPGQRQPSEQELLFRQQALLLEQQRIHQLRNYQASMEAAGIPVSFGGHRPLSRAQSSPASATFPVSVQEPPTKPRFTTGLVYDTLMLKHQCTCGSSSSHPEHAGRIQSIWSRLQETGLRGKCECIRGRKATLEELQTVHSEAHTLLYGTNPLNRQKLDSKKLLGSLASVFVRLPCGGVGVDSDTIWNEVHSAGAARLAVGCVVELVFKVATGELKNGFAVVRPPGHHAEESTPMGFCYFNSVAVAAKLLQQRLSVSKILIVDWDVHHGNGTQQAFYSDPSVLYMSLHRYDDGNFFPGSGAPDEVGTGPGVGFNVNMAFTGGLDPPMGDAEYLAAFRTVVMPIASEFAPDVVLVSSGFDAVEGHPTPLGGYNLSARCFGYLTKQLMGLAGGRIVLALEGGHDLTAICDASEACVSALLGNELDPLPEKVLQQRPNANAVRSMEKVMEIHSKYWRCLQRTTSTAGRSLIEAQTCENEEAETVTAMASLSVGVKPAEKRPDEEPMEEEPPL

[2] = target: T2, Protein deacetylase HDAC6 (Homo sapiens, UniProt Q9UBN7); test: Inhibition of HDAC6 (unknown origin)
T2 sequence (Q9UBN7 whole entry): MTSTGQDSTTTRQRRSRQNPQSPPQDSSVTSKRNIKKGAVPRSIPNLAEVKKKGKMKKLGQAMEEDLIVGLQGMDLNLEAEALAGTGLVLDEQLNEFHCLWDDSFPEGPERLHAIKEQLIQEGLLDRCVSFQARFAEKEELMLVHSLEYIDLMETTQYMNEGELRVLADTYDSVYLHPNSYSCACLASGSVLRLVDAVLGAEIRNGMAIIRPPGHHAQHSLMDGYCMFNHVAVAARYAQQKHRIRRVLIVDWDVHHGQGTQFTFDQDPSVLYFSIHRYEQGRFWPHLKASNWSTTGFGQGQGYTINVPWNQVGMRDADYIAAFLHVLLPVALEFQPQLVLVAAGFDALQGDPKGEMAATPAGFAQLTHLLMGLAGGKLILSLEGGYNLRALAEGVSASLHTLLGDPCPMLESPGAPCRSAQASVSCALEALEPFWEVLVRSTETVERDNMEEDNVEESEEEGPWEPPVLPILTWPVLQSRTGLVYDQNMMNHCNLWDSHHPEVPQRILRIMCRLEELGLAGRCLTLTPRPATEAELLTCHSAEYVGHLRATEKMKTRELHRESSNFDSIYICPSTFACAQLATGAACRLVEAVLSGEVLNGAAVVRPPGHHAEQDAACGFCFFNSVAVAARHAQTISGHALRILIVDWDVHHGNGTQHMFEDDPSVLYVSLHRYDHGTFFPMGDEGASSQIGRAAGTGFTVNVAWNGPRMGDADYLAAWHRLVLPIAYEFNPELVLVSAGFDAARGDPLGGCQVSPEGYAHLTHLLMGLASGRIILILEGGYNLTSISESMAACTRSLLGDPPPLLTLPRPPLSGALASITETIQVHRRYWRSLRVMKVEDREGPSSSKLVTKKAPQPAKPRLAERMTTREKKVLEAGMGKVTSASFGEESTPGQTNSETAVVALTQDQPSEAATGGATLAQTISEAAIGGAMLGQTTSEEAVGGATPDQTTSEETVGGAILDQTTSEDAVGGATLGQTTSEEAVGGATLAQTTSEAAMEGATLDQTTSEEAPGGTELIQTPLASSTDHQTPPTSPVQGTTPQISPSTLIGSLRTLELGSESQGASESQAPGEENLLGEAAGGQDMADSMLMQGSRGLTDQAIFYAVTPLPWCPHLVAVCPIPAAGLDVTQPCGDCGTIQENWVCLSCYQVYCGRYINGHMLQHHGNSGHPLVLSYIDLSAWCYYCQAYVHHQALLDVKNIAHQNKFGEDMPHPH

Histone deacetylase 7 = target: T3, Histone deacetylase 7 (Homo sapiens, UniProt Q8WUI4); test: Inhibition of HDAC7 (unknown origin) using HDAC class IIa substrate (trifluoroacetyl-lysine-AMC) as substrate by fluorescent method
T3 sequence (Q8WUI4 whole entry): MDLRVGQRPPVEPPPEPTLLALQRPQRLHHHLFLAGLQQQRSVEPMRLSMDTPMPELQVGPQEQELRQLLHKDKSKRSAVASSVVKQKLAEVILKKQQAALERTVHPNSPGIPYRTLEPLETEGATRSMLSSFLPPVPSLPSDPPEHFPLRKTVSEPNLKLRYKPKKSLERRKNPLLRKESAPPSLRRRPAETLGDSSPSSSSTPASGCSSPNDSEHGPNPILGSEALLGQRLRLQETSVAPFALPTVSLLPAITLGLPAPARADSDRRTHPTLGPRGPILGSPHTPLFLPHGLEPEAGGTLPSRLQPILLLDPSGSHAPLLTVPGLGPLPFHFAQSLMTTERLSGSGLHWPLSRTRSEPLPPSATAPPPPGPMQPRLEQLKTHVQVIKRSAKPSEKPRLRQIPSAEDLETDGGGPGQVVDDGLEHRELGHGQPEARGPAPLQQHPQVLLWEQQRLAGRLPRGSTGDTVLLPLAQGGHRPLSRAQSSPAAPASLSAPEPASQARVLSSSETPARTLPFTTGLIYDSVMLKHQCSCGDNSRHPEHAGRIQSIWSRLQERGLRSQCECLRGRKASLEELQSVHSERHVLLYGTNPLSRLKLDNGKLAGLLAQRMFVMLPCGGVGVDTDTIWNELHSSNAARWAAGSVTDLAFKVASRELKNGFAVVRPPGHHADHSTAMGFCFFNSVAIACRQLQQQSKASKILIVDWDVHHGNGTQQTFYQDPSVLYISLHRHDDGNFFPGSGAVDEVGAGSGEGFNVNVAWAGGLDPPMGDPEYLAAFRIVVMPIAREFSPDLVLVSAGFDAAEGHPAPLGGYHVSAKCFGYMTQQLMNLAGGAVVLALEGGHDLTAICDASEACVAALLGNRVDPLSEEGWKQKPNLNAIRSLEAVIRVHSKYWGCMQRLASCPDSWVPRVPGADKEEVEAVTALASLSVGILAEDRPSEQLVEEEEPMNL

[3] = target: T2, Protein deacetylase HDAC6; test: Inhibition of HDAC6 (unknown origin) using p53 residues (379 to 382)(RHKK(Ac)-AMC) as substrate by fluorescent method
Histone deacetylase 11 [4] = target: T1, Histone deacetylase 11; test: Inhibition of HDAC11 (unknown origin) using p53 (379 to 382 residues)(RHKK(Ac)-AMC) as substrate by fluorescent method

Row | IC50 (Histone deacetylase 11 [1]) | IC50 (Histone deacetylase 3) | IC50 (Histone deacetylase 1) | IC50 (Histone deacetylase 4) | IC50 [2] | IC50 (Histone deacetylase 7) | IC50 [3] | IC50 (Histone deacetylase 11 [4]) | SMILES
1 | 0.83 µM | > 10 µM | > 10 µM | > 10 µM | > 10 µM | – | – | – | CCCCCCCCCCCCCCCCNNC(=O)c1cccs1
2 | – | – | – | – | – | > 10 µM | > 10 µM | 9.7 µM | Cn1cc(-c2ccc(S(=O)(=O)n3ccc(/C=C/C(=O)Nc4ccccc4N)c3)cc2)cn1 [DOMATINOSTAT]
